Where a name gives a salt, the structure may show the parent alone. Read-outs that look alike come from different tables or passages of the source.
Experiments:
[1] = Acute toxicity, LD50 (Litchfield-Wilcoxon method); type: in vivo; settings: for LD50: mouse, in vivo, ip
Method: (§1) Anticonvulsant activity has also been discovered in the compounds of this invention. The compounds have been tested in mice for antidepressant, sedative, anticonvulsant and anticholinergic activity. The compounds were administered intraperitoneally and the activities of the compounds were compared with those of Amitriptyline. Antidepressant activity was evaluated by antagonism of reserpine (5 mg/kg, i.p.) induced hypothermia (P. S. J. Spencer in "Antidepressant Drugs", S. Garattini and M. N. G. Duhes, ed., Excerpta Medica Foundation, Amsterdam, pages 194-204 (1967)) and antireserpine activity was expressed as relative potency (Amitriptyline = 1). LD50 was calculated by the Litchfield-Wilcoxon method. CNS depressant activity was defined by the ability of the compounds to cause neurological deficit as measured by a traction test (S. Courvoisier, R. Ducrot, L. Julou; "Psychotropic Drugs" ed. by S. Garattini, V. Ghetti, page 373 (1957)) and spontaneous motor activity. (Spontaneous motor activity was measured by an ANIMEX apparatus.) Anticonvulsant activity was determined by antagonism of electroshock induced tonic extensor [L. S. Goodman, M. Singh Grewal, W. C. Brown and E. A. Swinyard, J. Pharmacol, Exptal. Therap., 108, 168 (1953)]. Central anticholinergic effect was assessed by testing a tremorine induced tremor in mice [G. M. Everett, L. E. Bloucus and J. M. Sheppard, Science 124, 79 (1956)]. Results of these tests are summarized in Tables I and II, in which ED50 is defined as the dose of the test compounds which prevents 50% of each response.

[2] = test system: reserpine induced hypothermia; test: Antagonism of reserpine induced hypothermia in mice (antidepressant / antireserpine activity); type: in vivo; settings: for Relative Potency (antireserpine activity, Amitriptyline = 1): reserpine 5 mg/kg i.p., compounds given intraperitoneally
Method: as §1

[3] = test system: neurological deficit (traction test); test: CNS depressant activity: muscle relaxant action (traction test); type: in vivo, mice; settings: for ED50: Mus musculus, ip, read-out: Muscle Relaxant Action ED50
Method: as §1

[4] = test system: electroshock induced tonic extensor; test: Anticonvulsant activity: antagonism of electroshock induced tonic extensor; type: in vivo, mice; settings: Mus musculus, ip, read-out: Anticonvulsant Activity ED50
Method: as §1, with “Therap., 108, 168 (1953)].” left out, “Results of these tests are summarized in Tables I and II, in which ED50 is defined as the dose of the test compounds which prevents 50% of each response.” left out

[5] = test system: spontaneous motor activity; test: CNS depressant activity: spontaneous motor activity (ANIMEX apparatus); type: in vivo, mice; settings: Mus musculus, ip, read-out: Spontaneous Motor Activity Depression ED50
Method: as §1, with “Therap., 108, 168 (1953)].” left out, “Results of these tests are summarized in Tables I and II, in which ED50 is defined as the dose of the test compounds which prevents 50% of each response.” left out

[6] = test system: tremorine induced tremor; test: Central anticholinergic effect: tremorine induced tremor in mice; type: in vivo; settings: for ED50: Mus musculus, ip, read-out: Antitremorine Effect ED50
Method: as §1

[7] = intraperitoneal, mice, Litchfield-Wilcoxon, read-out: LD50

CN(C)CCCCOc1ccccc1Sc1ccccc1 [2-(4-dimethylaminobutoxy)-diphenyl sulfide hydrochloride]
LD50 [1, 7]: 130 mg/kg | Relative Potency (antireserpine activity, Amitriptyline = 1) [2]: 0.70

CN(C)CCC=C1c2ccccc2CCc2ccccc21 [Amitriptyline, reference compound]
ED50 [3]: 15 mg/kg | ED50 [4]: 16 mg/kg | ED50 [5]: 18 mg/kg | ED50 [6]: 4 mg/kg

CNCCCOc1ccccc1Sc1ccccc1 [2-(3-methylaminopropoxy) diphenyl sulfide hydrochloride]
LD50 [1, 7]: 135 mg/kg | Relative Potency (antireserpine activity, Amitriptyline = 1) [2]: 0.60

NCCCCOc1ccccc1Sc1ccccc1 [2-(4-aminobutoxy) diphenyl sulfide hydrochloride]
Relative Potency (antireserpine activity, Amitriptyline = 1) [2]: 0.36

CN(C)CCCCCOc1ccccc1Sc1ccccc1 [2-(5-dimethylaminopentyloxy) diphenyl sulfide hydrochloride]
Relative Potency (antireserpine activity, Amitriptyline = 1) [2]: 0.15

c1ccc(Sc2ccccc2OCCCCN2CCOCC2)cc1 [2-(4-morpholinobutoxy) diphenyl sulfide hydrochloride]
Relative Potency (antireserpine activity, Amitriptyline = 1) [2]: 0.38

CNCCCCOc1ccccc1Sc1ccccc1 [2-(4-methylaminobutoxy) diphenyl sulfide hydrochloride]
ED50 ([3]; traction test, mice, i.p., CNS depressant activity): 50 mg/kg | CNS depressant action (in words) ([3]; mice, i.p., traction test and spontaneous motor activity): weak | toxicity (in words) ([1]; mice, i.p., from Tables I and II): low toxicity | LD50 [1]: 120 mg/kg | ED50 ([4]; electroshock, mice, i.p., dose which prevents 50% of response): > 60 mg/kg | antireserpine activity (in words) ([2]; i.p., from Tables I and II): comparable to that of Amitriptyline | Relative Potency (antireserpine activity, Amitriptyline = 1) [2]: 0.90 | ED50 ([5]; ANIMEX, mice, i.p., CNS depressant activity): > 60 mg/kg | ED50 ([6]; tremorine induced tremor, mice, i.p., central anticholinergic): 30 mg/kg | anticholinergic action (in words) ([6]; mice, i.p.): weak CNS depressant and anticholinergic action

CN(C)CCCOc1ccccc1Oc1ccccc1 [2-(3-dimethylaminopropoxy) diphenyl ether hydrochloride, reference compound]
Relative Potency (antireserpine activity, Amitriptyline = 1) [2]: 0.14
